# Literature values as cited in patent publication US20030022912A1, “Rapid-onset medicament for treatment of sexual dysfunction” (priority 2001, published 2003).
# Conditions: human subjects; sublingual administration; drug as free base except where a footnote notes a salt
row,SMILES,sublingual Tmax
1,CN1CCc2cccc3c2[C@H]1Cc1ccc(O)c(O)c1-3 [apomorphine],1.02 h
2,CN(C)CCCN1c2ccccc2CCc2ccc(Cl)cc21 [clomipramine],1.5 h
3,COc1c2occc2cc2ccc(=O)oc12 [methoxsalen],0.417 h
4,O=[N+]([O-])OCC(CO[N+](=O)[O-])O[N+](=O)[O-] [nitroglycerin],0.05 h
5,C#CCN(C)[C@H](C)Cc1ccccc1 [selegiline],0.167 h
6,CCCc1nn(C)c2c(=O)[nH]c(-c3cc(S(=O)(=O)N4CCN(C)CC4)ccc3OCC)nc12 [sildenafil],1 h
7,CC(C)NCC(O)c1ccc(NS(C)(=O)=O)cc1 (centres unmarked) [sotalol],2.1 h
8,CN1C(=O)C(O)N=C(c2ccccc2)c2cc(Cl)ccc21 (centres unmarked) [temazepam],1.08 h
